Patent publication US6500853B1, “Inhibitors of phospholipase enzymes” (Genetics Institute, LLC, priority 1998, dated 2002)

Experiments:
cPLA2 = target: T1, cPLA2 (Homo sapiens, UniProt P47712); experiment: Coumarin Assay (cPLA2 inhibition); type: biochemical; conditions: read-out: PERCENT INHIBITION @; for inhibition at 20 µM: CONCENTRATION 20 micromolar; for inhibition at 30 µM: CONCENTRATION 30 micromolar; for inhibition at 0.65 µM: CONCENTRATION 0.65 micromolar; for inhibition at 0.7 µM: CONCENTRATION 0.7 micromolar; for inhibition at 0.95 µM: CONCENTRATION 0.95 micromolar; for inhibition at 6.25 µM: CONCENTRATION 6.25 micromolar
T1 sequence (P47712 1-749): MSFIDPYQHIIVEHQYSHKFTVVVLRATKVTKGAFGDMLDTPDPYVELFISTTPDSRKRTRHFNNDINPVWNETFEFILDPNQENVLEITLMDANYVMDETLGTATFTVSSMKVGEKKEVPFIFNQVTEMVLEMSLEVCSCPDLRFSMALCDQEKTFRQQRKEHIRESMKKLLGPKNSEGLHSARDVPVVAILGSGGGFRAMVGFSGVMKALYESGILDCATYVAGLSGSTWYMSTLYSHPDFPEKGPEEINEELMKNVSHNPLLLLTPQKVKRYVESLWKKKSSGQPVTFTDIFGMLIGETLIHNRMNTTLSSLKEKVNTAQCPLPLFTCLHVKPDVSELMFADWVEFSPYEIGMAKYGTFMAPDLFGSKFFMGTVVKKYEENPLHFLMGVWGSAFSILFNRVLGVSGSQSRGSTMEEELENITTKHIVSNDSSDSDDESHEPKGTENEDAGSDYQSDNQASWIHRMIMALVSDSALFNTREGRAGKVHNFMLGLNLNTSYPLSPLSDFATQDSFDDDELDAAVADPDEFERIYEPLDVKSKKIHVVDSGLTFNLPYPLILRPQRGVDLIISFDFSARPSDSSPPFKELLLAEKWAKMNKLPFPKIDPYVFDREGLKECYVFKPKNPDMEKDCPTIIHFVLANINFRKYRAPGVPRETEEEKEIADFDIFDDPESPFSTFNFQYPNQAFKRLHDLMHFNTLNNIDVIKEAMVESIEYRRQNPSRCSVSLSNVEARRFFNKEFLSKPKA
How it was run: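 Percent inhibition at the stated concentration, from the rate of 460 nm emission rise (360 nm excitation) per minute. Reaction started by adding 4 μg enzyme to compound and 60 μM 7-hydroxycoumarinyl 6-heptenoate in Hepes buffer pH 7.5 with 1 mM EDTA.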

[1] = tested on: Rat Carrageenan-Induced Footpad Edema; experiment: Rat Carrageenan-Induced Footpad Edema Test; type: in vivo, male Sprague Dawley rats; conditions: Rattus norvegicus, 3 h, footpad volume 3 hours after carrageenan, read-out: PERCENT INHIBITION; for inhibition in vivo at 5 mg/kg: iv, IV; for inhibition in vivo at 2 mg/kg / inhibition in vivo at 10 mg/kg: po, PO

| Structure (SMILES) | inhibition at 20 µM (cPLA2) [%] | inhibition at 30 µM (cPLA2) [%] | inhibition at 0.65 µM (cPLA2) [%] | inhibition at 0.7 µM (cPLA2) [%] | inhibition at 0.95 µM (cPLA2) [%] | inhibition at 6.25 µM (cPLA2) [%] | inhibition in vivo at 5 mg/kg [1] [%] | inhibition in vivo at 2 mg/kg [1] [%] | inhibition in vivo at 10 mg/kg [1] [%] | other results |
| --- | --- | --- | --- | --- | --- | --- | --- | --- | --- | --- |
| CCCCNC(=O)Nc1ccc2c(c1)c(Cc1ccc(C(=O)O)cc1OC)cn2C(c1ccccc1)c1ccccc1 [Example 9, 4[(1-benzhydryl-5-{[(butylamino)carbonyl]amino}-1H-indol-3-yl)methyl]3-methoxybenzoic acid] | – | – | – | – | – | – | 4.46 | – | – | inhibition at 13 µM (cPLA2; CONCENTRATION 13 micromolar): 50%; inhibition at 19 µM (cPLA2; CONCENTRATION 19 micromolar): 50% |
| COc1cc(C(=O)O)ccc1Cc1cn(C(c2ccccc2)c2ccccc2)c2ccc(NS(C)(=O)=O)cc12 [Example 10, 4-({1-benzhydryl-5-[(methylsulfonyl)amino]-1H-indol-3-yl}methyl)-3-methoxybenzoic acid] | 50 | 50 | – | – | – | – | 25.3 | – | – | inhibition at 33.5 µM (cPLA2; CONCENTRATION 33.5 micromolar): 50%; inhibition at 40 µM (cPLA2; CONCENTRATION 40 micromolar): 50%; inhibition at 45 µM (cPLA2; CONCENTRATION 45 micromolar): 50% |
| COc1cc(C(=O)O)ccc1Cc1cn(C(c2ccccc2)c2ccccc2)c2ccc(C)cc12 [Example 15, 4-[(1-benzhydryl-5-methyl-1H-indol-3-yl)methyl]-3-methoxybenzoic acid] | – | – | 50 | – | – | 90 | – | 7.05 | 6.88 | inhibition at 0.72 µM (cPLA2; CONCENTRATION 0.72 micromolar): 50%; inhibition at 0.76 µM (cPLA2; CONCENTRATION 0.76 micromolar): 50%; inhibition at 0.85 µM (cPLA2; CONCENTRATION 0.85 micromolar): 50% |

Now from value to molecule, other results behind:

| inhibition at 20 µM (cPLA2) [%] | inhibition at 30 µM (cPLA2) [%] | inhibition at 0.65 µM (cPLA2) [%] | inhibition at 0.7 µM (cPLA2) [%] | inhibition at 0.95 µM (cPLA2) [%] | inhibition at 6.25 µM (cPLA2) [%] | Structure (SMILES) | inhibition in vivo at 5 mg/kg [1] [%] | inhibition in vivo at 2 mg/kg [1] [%] | inhibition in vivo at 10 mg/kg [1] [%] | other results |
| --- | --- | --- | --- | --- | --- | --- | --- | --- | --- | --- |
| 36 | 50 | – | – | – | – | COc1cc(C(=O)O)ccc1Cc1cn(C(c2ccccc2)c2ccccc2)c2ccc(NC(=O)C3CCCC3)cc12 [Example 11, 4-({1-benzhydryl-5-[(cyclopentylcarbonyl)amino]-1H-indol-3-yl}methyl)-3-methoxybenzoic acid] | 14 | – | – | inhibition at 10 µM (cPLA2; CONCENTRATION 10 micromolar): 42%; inhibition at 12 µM (cPLA2; CONCENTRATION 12 micromolar): 50%; inhibition at 12.5 µM (cPLA2; CONCENTRATION 12.5 micromolar): 52%; inhibition at 27.5 µM (cPLA2; CONCENTRATION 27.5 micromolar): 50%; inhibition at 37 µM (cPLA2; CONCENTRATION 37 micromolar): 50% |
| – | – | 50 | 50 | 50 | 81 | COc1cc(C(=O)O)ccc1Cc1cn(C(c2ccccc2)c2ccccc2)c2ccc(Br)cc12 [Example 13, 4-[(1-benzhydryl-5-bromo-1H-indol-3-yl)methyl]-3-methoxybenzoic acid] | – | 26 | 23.6 | inhibition at 0.39 µM (cPLA2; CONCENTRATION 0.39 micromolar): 50%; inhibition at 0.4 µM (cPLA2; CONCENTRATION 0.4 micromolar): 50%; inhibition at 0.48 µM (cPLA2; CONCENTRATION 0.48 micromolar): 50%; inhibition at 0.55 µM (cPLA2; CONCENTRATION 0.55 micromolar): 50%; inhibition at 0.6 µM (cPLA2; CONCENTRATION 0.6 micromolar): 50%; inhibition at 0.75 µM (cPLA2; CONCENTRATION 0.75 micromolar): 50%; inhibition at 2.5 µM (cPLA2; CONCENTRATION 2.5 micromolar): 73% |
| – | – | – | 50 | 50 | – | COc1cc(C(=O)O)ccc1Cc1cn(C(c2ccccc2)c2ccccc2)c2ccc(F)cc12 [Example 14, 4-[(1-benzhydryl-5-fluoro-1H-indol-3-yl)methyl]-3-methoxybenzoic acid] | – | 11.5 | 8.14 | – |
